Laboratory results published in US8518980B2, “Treatment of Duchenne muscular dystrophy” (Summit Corporation PLC, priority 2006, dated 2013).
Structures can show the parent of a compound that is named as a salt.

Test system: Utrophin A promoter linked to a luciferase reporter gene (H2K/mdx/Utro A reporter cell line)
Assay: Luciferase reporter assay (murine H2K cells)
Settings: for Activity: luciferase level relative to control, final concentration of 10 μM; for activity at 10 µM: Mus musculus, H2K mdx

Row | SMILES | activity at 10 µM [%] | other results
1 | O=C(O)c1cccc(-c2ccc3oc(-c4ccc(Cl)cc4)nc3c2)c1 [Example 313, 3-(2-(4-chlorophenyl)benzo[d]oxazol-5-yl)benzoic acidd] | – | Activity (Table 1): + (Up to 200% relative to control)
2 | Clc1ccc(-c2nc3cc4c(cc3o2)OCO4)cc1Cl [Example 361, 2-(3,4-chlorophenyl)-5,6-methylenedioxybenzoxazole] | – | Activity (Table 1): + (Up to 200% relative to control)
3 | CCN(CC)S(=O)(=O)c1ccc2oc(-c3ccc(Cl)cc3)nc2c1 [Example 439, 2-(4′-chlorophenyl)-5-(N,N-diethylsulfonamidyl)-benzoxazole] | – | Activity (Table 1): + (Up to 200% relative to control)
4 | CC(=O)c1ccc2oc(-c3ccc(Cl)c(Cl)c3)nc2c1 [Example 453, 1-(2′-(3″,4″-Dichlorophenyl)benzo[d]oxazol-5′-yl)ethanone] | – | Activity (Table 1): ++++ (Above 401% relative to control)
5 | Clc1ccc(SCc2ccc(-c3nc4ccccc4[nH]3)cc2)cc1 [Example 460, 2-(4-((4-chlorophenylthio)methyl)phenyl)-1H-benzo[d]imidazole] | < 200 | –
6 | Clc1ccc(OCc2nc3ccccc3[nH]2)c(Cl)c1 [Example 461, 2-((2,4-dichlorophenoxy)methyl)-1H-benzo[d]imidazole] | 301 to 400 | –
7 | Cc1ccc2sc(NC(=O)NC(=O)c3c(Cl)cccc3Cl)nc2c1 [Example 462, 2,6-dichloro-N-(5-methylbenzo[d]thiazol-2-ylcarbamoyl)benzamide] | < 200 | –
8 | c1csc(-c2nc3ccccc3[nH]2)c1 [Example 463, 2-(thiophen-2-yl)-1H-benzo[d]imidazole] | < 200 | –
9 | O=C(Nc1cccc(-c2nc3ccccc3[nH]2)c1)c1ccccc1 [Example 464, N-(3-(1H-benzo[d]imidazol-2-yl)phenyl)benzamide] | < 200 | –
10 | Clc1ccc(OCc2nc3ccccc3n2Cc2ccccc2Cl)c(Cl)c1 [Example 465, 1-(2-chlorobenzyl)-2-((2,4-dichlorophenoxy)methyl)-1H-benzo[d]imidazole] | < 200 | –
11 | Cc1nc2ccc(NC(=O)Nc3ccccc3)cc2o1 [Example 466, 1-(2-methylbenzo[d]oxazol-6-yl)-3-phenylurea] | < 200 | –
12 | CNC(=O)Nc1ccc2nc(C)oc2c1 [Example 467, 1-methyl-3-(2-methylbenzo[d]oxazol-6-yl)urea] | < 200 | –
13 | Cc1nc2ccc(NC(=O)NC(=O)c3ccccc3Cl)cc2o1 [Example 468, 2-chloro-N-(2-methylbenzo[d]oxazol-6-ylcarbamoyl)benzamide] | < 200 | –
14 | Clc1ccc(-c2nc3cc(CN4CCCCC4)ccc3o2)cc1 [Example 469, 2-(4-chlorophenyl)-5-(piperidin-1-ylmethyl)benzo[d]oxazole] | < 200 | –
15 | COc1ccc(-c2nc3ccccc3[nH]2)cc1 [Example 470, 2-(4-methoxyphenyl)-1H-benzo[d]imidazole] | 201 to 300 | –
16 | c1ccc(OCc2nc3ccccc3[nH]2)cc1 [Example 471, 2-(phenoxymethyl)-1H-benzo[d]imidazole] | 201 to 300 | –
17 | Cn1c(-c2ccc([N+](=O)[O-])cc2)nc2ccccc21 [Example 472, 1-methyl-2-(4-nitrophenyl)-1H-benzo[d]imidazole] | < 200 | –
18 | COc1ccc(OCc2nc3ccccc3[nH]2)cc1 [Example 473, 2-((4-methoxyphenoxy)methyl)-1H-benzo[d]imidazole] | – | Activity (Table 2): ++ (Between 201% and 300% relative to control)
19 | Cn1c(COc2ccccc2)nc2ccccc21 [Example 474, 1-methyl-2-(phenoxymethyl)-1H-benzo[d]imidazole] | < 200 | –

Row | SMILES | activity at 10 µM [%] | other results
20 | Nc1ccc(-c2nc3ccccc3[nH]2)cc1 [Example 475, 4-(1H-benzo[d]imidazol-2-yl)aniline] | < 200 | –
21 | Nc1ccc2nc(-c3ccc(-c4nc5ccc(N)cc5[nH]4)cc3)[nH]c2c1 [Example 476, 2,2′-(1,4-phenylene)bis(1H-benzo[d]imidazol-6-amine)] | < 200 | –
22 | O=[N+]([O-])c1ccc(-c2nc3ccccc3o2)cc1 [Example 477, 2-(4-nitrophenyl)benzo[d]oxazole] | < 200 | –
23 | Nc1ccc(-c2nc3ccccc3o2)cc1 [Example 478, 4-(benzo[d]oxazol-2-yl)aniline] | 201 to 300 | –
24 | Cc1ccc(-c2nc3ccccc3s2)cc1N [Example 479, 5-(benzo[d]thiazol-2-yl)-2-methylaniline] | 201 to 300 | –
25 | Nc1ccc2oc(-c3ccc(Cl)c(Cl)c3)nc2c1 [Example 480, 2-(3,4-dichlorophenyl)benzo[d]oxazol-5-amine] | 201 to 300 | –
26 | CCc1ccc(-c2nc3cc(N)ccc3o2)cc1 [Example 481, 2-(4-ethylphenyl)benzo[d]oxazol-5-amine] | 201 to 300 | –
27 | Cc1cc(C)cc(-c2nc3cc(N)ccc3o2)c1 [Example 482, 2-(3,5-dimethylphenyl)benzo[d]oxazol-5-amine] | < 200 | –
28 | Oc1ccccc1-c1nc2ccccc2s1 [Example 483, 2-(benzo[d]thiazol-2-yl)phenol] | < 200 | –
29 | Nc1ccc(-c2nc3ccccc3o2)c(O)c1 [Example 484, 5-amino-2-(benzo[d]oxazol-2-yl)phenol] | 201 to 300 | –
30 | Cc1cc2nc(-c3ccc(N)cc3)oc2cc1C [Example 485, 4-(5,6-dimethylbenzo[d]oxazol-2-yl)aniline] | 201 to 300 | –
31 | CN(C)c1ccc(-c2nc3ccccc3o2)cc1 [Example 486, 4-(benzo[d]oxazol-2-yl)-N,N-dimethylaniline] | < 200 | –
32 | Nc1ccc2oc(-c3ccc(Cl)cc3)nc2c1 [Example 488, 2-(4-chlorophenyl)benzo[d]oxazol-5-amine] | 201 to 300 | –
33 | Nc1ccc2oc(-c3cccc(Cl)c3)nc2c1 [Example 489, 2-(3-chlorophenyl)benzo[d]oxazol-5-amine] | 201 to 300 | –
34 | Cn1c(-c2ccc(N)cc2)nc2cc(N)ccc21 [Example 490, 2-(4-aminophenyl)-1-methyl-1H-benzo[d]imidazol-5-amine] | < 200 | –
35 | CN(C)c1ccc(-c2nc3cc(N)ccc3o2)cc1 [Example 491, 2-(4-(dimethylamino)phenyl)benzo[d]oxazol-5-amine] | 201 to 300 | –
36 | O=[N+]([O-])c1ccc2oc(-c3ccccc3)nc2c1 [Example 492, 5-nitro-2-phenylbenzo[d]oxazole] | 201 to 300 | –
37 | O=C(Cc1cccs1)Nc1ccc(-c2nc3ccccc3[nH]2)cc1 [Example 493, N-(4-(1H-benzo[d]imidazol-2-yl)phenyl)-2-(thiophen-2-yl)acetamide] | < 200 | –
38 | COc1ccc(C(=O)Nc2ccc(-c3nc4ccccc4[nH]3)cc2)cc1OC [Example 494, N-(4-(1H-benzo[d]imidazol-2-yl)phenyl)-3,4-dimethoxybenzamide] | < 200 | –

Row | SMILES | activity at 10 µM [%] | other results
39 | Clc1ccc(OCc2nc3ccccc3[nH]2)cc1 [Example 495, 2-((4-chlorophenoxy)methyl)-1H-benzo[d]imidazole] | < 200 | –
40 | Nc1ccc2oc(-c3ccc(O)cc3)nc2c1 [Example 496, 4-(5-aminobenzo[d]oxazol-2-yl)phenol] | 201 to 300 | –
41 | O=C(Nc1ccc(-c2nc3ccccc3[nH]2)cc1)c1ccccc1 [Example 497, N-(4-(1H-benzo[d]imidazol-2-yl)phenyl)benzamide] | < 200 | –
42 | CN(C)c1ccc(-c2nc3ccccc3[nH]2)cc1 [Example 498, 4-(1H-benzo[d]imidazol-2-yl)-N,N-dimethylaniline] | < 200 | –
43 | COCc1nc2ccccc2[nH]1 [Example 499, 2-(methoxymethyl)-1H-benzo[d]imidazole] | < 200 | –
44 | O=C(Nc1ccccc1-c1nc2ccccc2[nH]1)c1ccc(Cl)cc1Cl [Example 500, N-(2-(1H-benzo[d]imidazol-2-yl)phenyl)-2,4-dichlorobenzamide] | < 200 | –
45 | O=C(Cc1ccccc1)Nc1ccc(-c2nc3ccccc3[nH]2)cc1 [Example 501, N-(4-(1H-benzo[d]imidazol-2-yl)phenyl)-2-phenylacetamide] | < 200 | –
46 | CCc1ccc2oc(-c3cccc(N)c3)nc2c1 [Example 502, 3-(5-ethylbenzo[d]oxazol-2-yl)aniline] | 201 to 300 | –
47 | CC(=O)Nc1cccc(-c2nc3ccccc3[nH]2)c1 [Example 503, N-(3-(1H-benzo[d]imidazol-2-yl)phenyl)acetamide] | < 200 | –
48 | O=C(Nc1cccc(-c2nc3ccccc3[nH]2)c1)c1cccs1 [Example 504, N-(3-(1H-benzo[d]imidazol-2-yl)phenyl)thiophene-2-carboxamide] | < 200 | –
49 | Cc1ccc2oc(-c3ccc([N+](=O)[O-])cc3)nc2c1 [Example 505, 5-methyl-2-(4-nitrophenyl)benzo[d]oxazole] | 201 to 300 | –
50 | Cc1ccc2nc(-c3ccc(N)cc3)oc2c1 [Example 506, 4-(6-methylbenzo[d]oxazol-2-yl)aniline] | < 200 | –
51 | Fc1ccccc1-c1nc2ccccc2[nH]1 [Example 507, 2-(2-fluorophenyl)-1H-benzo[d]imidazole] | 201 to 300 | –
52 | O=[N+]([O-])c1ccc2[nH]c(-c3ccco3)nc2c1 [Example 508, 2-(furan-2-yl)-5-nitro-1H-benzo[d]imidazole] | < 200 | –
53 | CN(C)c1ccc(-c2nc3cc([N+](=O)[O-])ccc3[nH]2)cc1 [Example 509, N,N-dimethyl-4-(5-nitro-1H-benzo[d]imidazol-2-yl)aniline] | 201 to 300 | –
54 | Nc1ccc2[nH]c(-c3ccco3)nc2c1 [Example 510, 2-(furan-2-yl)-1H-benzo[d]imidazol-5-amine dihydrochloride] | < 200 | –
55 | O=C(Nc1ccccc1-c1nc2ccccc2[nH]1)c1ccc(S(=O)(=O)N2CCCC2)cc1 [Example 511, N-(2-(1H-benzo[d]imidazol-2-yl)phenyl)-4-(pyrrolidin-1-ylsulfonyl)benzamide] | < 200 | –
56 | COc1ccc(-c2nc3cc(N)ccc3o2)cc1 [Example 512, 2-(4-methoxyphenyl)benzo[d]oxazol-5-amine] | < 200 | –
